Entries after “also recorded” stand apart in the source; their conditions may differ.
How the values were obtained:
[1] = test system: serk and sIwind1 mutant hypocotyl explants; assay: Callus formation and shoot organogenesis of serk and sIwind1 mutant hypocotyl explants; format: cell-based, tomato; conditions: 1 nM REF1
Protocol: FIG. 49—REF1-RER1 regulates regeneration through SERK co-receptors. (a) RER1 complexes with SERK1, SERK3a and SERK3b in a REF1-dependent manner. Tobacco leaves transfected with SERKs-myc and RER1-HA-Flag were treated with 100 nM REF1 before IP with anti-myc agarose. RER1 and SERKs were detected by immunoblotting with anti-Flag or anti-myc antibodies, respectively. (b and c) REF1-induced callus formation of indicated genotypes. Hypocotyl explants were cultured on CIM with or without 1 nM REF1 for 14 d before callus phenotype was scored. Shown are representative callus images (b) and quantification of the callus projection area (c). Bars, 1 mm. Data are mean±SE. n=30 hypocotyl explants. […] Hypocotyl explants were cultured on CIM for 14 d and then transferred to SIM with or without 1 nM REF1 for 21d before shoot organogenesis phenotype was scored. […] In (c), the projected area of callus was quantified by Image J. Box plots represented the distribution of projected callus area. […] In (c) and (e), data points from three biological replicates were analysed with a one-sided Kruskal-Wallis test with Holm correction, followed by post hoc Dunn's test. […]
(a) Induction of the SIWIND1 promoter activity at the wound sites of hypocotyl explants. […] Hypocotyl explants were cultured on CIM with or without 1 nM REF1 for 14 d before callus phenotype was scored. […]

[2] = test system: PI126944 tomatoes; assay: Shoot regeneration of recalcitrant wild tomato PI126944; format: cell-based, S. peruvianum; conditions: PI126944, 1 nM REF1 vs REF1 absent
Protocol: (a) photos of PI126944 grown in the presence and absence of 1 nM REF1. (b) relative regeneration frequency of PI126944 grown in the presence and absence of 1 nM REF1. (c) number of hypocotyl of PI126944 grown in the presence and absence of 1 nM REF1.
(a) Photos of P126944 tomatoes (WT, PRR transformed, RER transformed, and PRR+RER transformed, grown in presence or absence of 1 nM REF1 for 19 days. (b) relative regeneration frequency of P126944 tomatoes (WT, PRR transformed, RER transformed, and PRR+RER transformed, grown in presence or absence of 1 nM REF1 for 19 days.
The effect of exogenously applied REF1 in a shoot inducing growth medium was investigated in PI126944 tomatoes by growing PI126944 tomatoes in the presence and absence of 1 nM REF1.
PI126944 tomatoes were transformed with the PRR+RER-OE construct as well as an equivalent construct only containing PRR and another construct only containing RER. Plants expressing these constructs along with a wild type control were grown in the presence or absence of REF1 for 19 days.

ATDRRGRPPSRPKVGSGPPPQNN (listed as Solanum lycopersicum) [REF1, 23 amino acid tomato peptide cleaved from precursor PROSIPEP]
rescue of compromised regenerative capacity ([1]; sIwind1 mutants): could not be rescued
rescue of regenerative defects (callus formation, shoot organogenesis) ([1]; serk3a-1, serk3b-1 and serk3a-1 serk3b-1 mutants): failed to rescue
number of hypocotyl [2]: higher
relative regeneration frequency, increase [2]: 5.5 fold
shoot regeneration [2]: greater shoot regeneration; also recorded: promotes shoot regeneration

Reference: patent US20260265771A1, “METHODS OF INCREASING THE REGENERATION EFFICIENCY IN PLANTS” (Institute of Genetics and Developmental Biology Chinese …, priority 2022, published 2026)
